Test results: ChEMBL document CHEMBL3875216, “Synthesis of antimicrobial glucosamides as bacterial quorum sensing mechanism inhibitors” (Bioorg Med Chem, 2017)

Experiments:
Escherichia coli [1] = test: Growth inhibition of Escherichia coli MT102 at 1 mM after 8 hrs relative to control; conditions: MT102, 8 h, read-out: GI
Escherichia coli [2] = test: Growth inhibition of Escherichia coli MT102 at 1 mM after 24 hrs relative to control; conditions: MT102, 24 h, read-out: GI
Pseudomonas aeruginosa [3] = test: Growth inhibition of Pseudomonas aeruginosa MH602 at 500 uM after 24 hrs relative to control; conditions: MH602, 24 h, read-out: GI
Escherichia coli [4] = test: Growth inhibition of Escherichia coli MT102 at 500 uM after 8 hrs relative to control; conditions: MT102, 8 h, read-out: GI
Pseudomonas aeruginosa [5] = test: Inhibition of LasR-dependent quorum sensing activity in Pseudomonas aeruginosa MH602 harboring GFP-fused […] LasB promoter assessed as inhibition of 3-oxo-dodecanoyl HSL-induced GFP expression at 2 mM measured after 24 hrs by fluorescence assay relative to control
Escherichia coli [6] = test: Growth inhibition of Escherichia coli MT102 at 2 mM after 24 hrs relative to control; conditions: MT102, 24 h, read-out: GI
Escherichia coli [7] = test: Growth inhibition of Escherichia coli MT102 at 2 mM after 8 hrs relative to control; conditions: MT102, 8 h, read-out: GI
Escherichia coli [8] = test: Inhibition of LuxR-dependent quorum sensing activity in Escherichia coli MT102 harboring pJBA132 assessed as inhibition of OHHL-induced GFP expression at 2 mM measured after 24 hrs by fluorescence assay relative to control
Pseudomonas aeruginosa [9] = test: Growth inhibition of Pseudomonas aeruginosa MH602 at 1 mM after 24 hrs relative to control; conditions: MH602, 24 h, read-out: GI
Pseudomonas aeruginosa [10] = test: Growth inhibition of Pseudomonas aeruginosa MH602 at 2 mM after 8 hrs relative to control; conditions: MH602, 8 h, read-out: GI
Pseudomonas aeruginosa [11] = test: Inhibition of LasR-dependent quorum sensing activity in Pseudomonas aeruginosa MH602 harboring GFP-fused […] LasB promoter assessed as inhibition of 3-oxo-dodecanoyl HSL-induced GFP expression at 1 mM measured after 24 hrs by fluorescence assay relative to control
Pseudomonas aeruginosa [12] = test: Growth inhibition of Pseudomonas aeruginosa MH602 at 500 uM after 8 hrs relative to control; conditions: MH602, 8 h, read-out: GI
Pseudomonas aeruginosa [13] = test: Growth inhibition of Pseudomonas aeruginosa PA14 at 2 mM after 24 hrs relative to control; conditions: 2000 µM
Pseudomonas aeruginosa [14] = test: Growth inhibition of Pseudomonas aeruginosa MH602 at 2 mM after 24 hrs relative to control; conditions: MH602, 24 h, read-out: GI
Escherichia coli [15] = test: Growth inhibition of Escherichia coli MT102 at 500 uM after 24 hrs relative to control; conditions: MT102, 24 h, read-out: GI
Pseudomonas aeruginosa [16] = test: Growth inhibition of Pseudomonas aeruginosa MH602 at 1 mM after 8 hrs relative to control; conditions: MH602, 8 h, read-out: GI
Pseudomonas aeruginosa [17] = test: Inhibition of LasR-dependent quorum sensing activity in Pseudomonas aeruginosa MH602 harboring GFP-fused […] LasB promoter assessed as inhibition of 3-oxo-dodecanoyl HSL-induced GFP expression at 1 mM measured after 8 hrs by fluorescence assay relative to control
[18] = test system: Pseudomonas aeruginosa PA14; test: Inhibition of quorum sensing-regulated pyocyanin production in Pseudomonas aeruginosa PA14 at 2 mM after 24 hrs relative to control
Pseudomonas aeruginosa [19] = test: Inhibition of LasR-dependent quorum sensing activity in Pseudomonas aeruginosa MH602 harboring GFP-fused […] LasB promoter assessed as inhibition of 3-oxo-dodecanoyl HSL-induced GFP expression at 500 uM measured after 24 hrs by fluorescence assay relative to control
[20] = test system: Pseudomonas aeruginosa PA14; test: Inhibition of quorum sensing-regulated biofilm formation in Pseudomonas aeruginosa PA14 at 2 mM after overnight incubation by crystal violet staining based assay relative to control
Escherichia coli [21] = test: Inhibition of LuxR-dependent quorum sensing activity in Escherichia coli MT102 harboring pJBA132 assessed as inhibition of OHHL-induced GFP expression at 1 mM measured after 24 hrs by fluorescence assay relative to control
Pseudomonas aeruginosa [22] = test: Inhibition of LasR-dependent quorum sensing activity in Pseudomonas aeruginosa MH602 harboring GFP-fused […] LasB promoter assessed as inhibition of 3-oxo-dodecanoyl HSL-induced GFP expression at 500 uM measured after 8 hrs by fluorescence assay relative to control
Escherichia coli [23] = test: Inhibition of LuxR-dependent quorum sensing activity in Escherichia coli MT102 harboring pJBA132 assessed as inhibition of OHHL-induced GFP expression at 2 mM measured after 8 hrs by fluorescence assay relative to control
Pseudomonas aeruginosa [24] = test: Inhibition of LasR-dependent quorum sensing activity in Pseudomonas aeruginosa MH602 harboring GFP-fused […] LasB promoter assessed as inhibition of 3-oxo-dodecanoyl HSL-induced GFP expression at 2 mM measured after 8 hrs by fluorescence assay relative to control
Escherichia coli [25] = test: Inhibition of LuxR-dependent quorum sensing activity in Escherichia coli MT102 harboring pJBA132 assessed as inhibition of OHHL-induced GFP expression at 1 mM measured after 8 hrs by fluorescence assay relative to control
Escherichia coli [26] = test: Inhibition of LuxR-dependent quorum sensing activity in Escherichia coli MT102 harboring pJBA132 assessed as inhibition of OHHL-induced GFP expression at 500 uM measured after 8 hrs by fluorescence assay relative to control
Escherichia coli [27] = test: Inhibition of LuxR-dependent quorum sensing activity in Escherichia coli MT102 harboring pJBA132 assessed as inhibition of OHHL-induced GFP expression at 500 uM measured after 24 hrs by fluorescence assay relative to control

SMILES | inhibition at 1000 µM (Escherichia coli [1]) [%] | inhibition at 1000 µM (Escherichia coli [2]) [%] | inhibition at 500 µM (Pseudomonas aeruginosa [3]) [%] | inhibition at 500 µM (Escherichia coli [4]) [%] | inhibition (Pseudomonas aeruginosa [5]) [%] | inhibition at 2000 µM (Escherichia coli [6]) [%] | inhibition at 2000 µM (Escherichia coli [7]) [%] | inhibition (Escherichia coli [8]) [%] | inhibition at 1000 µM (Pseudomonas aeruginosa [9]) [%] | inhibition at 2000 µM (Pseudomonas aeruginosa [10]) [%] | inhibition at 500 µM (Pseudomonas aeruginosa [12]) [%] | growth inhibition (GI) (Pseudomonas aeruginosa [13]) | inhibition at 2000 µM (Pseudomonas aeruginosa [14]) [%] | inhibition at 500 µM (Escherichia coli [15]) [%] | inhibition at 1000 µM (Pseudomonas aeruginosa [16]) [%] | inhibition (Pseudomonas aeruginosa [17]) [%] | inhibition (Pseudomonas aeruginosa [19]) [%] | inhibition [20] [%] | inhibition (Escherichia coli [21]) [%] | inhibition (Pseudomonas aeruginosa [22]) [%] | also measured
CC(=O)OC[C@H]1O[C@@H](OC(C)=O)[C@H](NC(=O)Cc2c[nH]c3ccccc23)[C@@H](OC(C)=O)[C@@H]1OC(C)=O | 0 | 1.8 | 0 | 0 | 12.5 | 15.1 | 0 | 24.2 | 0 | 0 | 0 | Non-Toxic | 4.6 | 2.8 | 0 | 4 | 12.1 | 0.5 | – | – | inhibition (Pseudomonas aeruginosa [11]): 12.5%; inhibition [18]: 1.5%
CCCCCC(=O)N[C@H]1[C@H](OC(C)=O)O[C@H](COC(C)=O)[C@@H](OC(C)=O)[C@@H]1OC(C)=O | 16.9 | 10.8 | 0 | 20.5 | 22.8 | 15.2 | 30.3 | 17.2 | 4.5 | 9.5 | 3 | Non-Toxic | 6.8 | 2.2 | 2.7 | 10.5 | 3.1 | – | 6.6 | 3.5 | inhibition (Pseudomonas aeruginosa [11]): 2.6%; inhibition (Escherichia coli [23]): 11.6%; inhibition (Pseudomonas aeruginosa [24]): 4%; inhibition (Escherichia coli [25]): 14.6%
O=C(CCCc1ccccc1)N[C@@H]1[C@@H](O)[C@H](O)[C@@H](CO)O[C@H]1O | 0 | 8.8 | 0 | 17.9 | 17.4 | 2.7 | 21.2 | 85 | 2 | 15.8 | 2.6 | Non-Toxic | 0 | 7.7 | 2.1 | 9.9 | – | 4.8 | 46.7 | 5.6 | inhibition (Escherichia coli [26]): 8.7%; inhibition (Escherichia coli [23]): 76.2%; inhibition (Escherichia coli [27]): 4.3%; inhibition (Pseudomonas aeruginosa [24]): 38.9%; inhibition (Escherichia coli [25]): 43.4%
O=C(Cc1ccc(C(F)(F)F)cc1)N[C@@H]1[C@@H](O)[C@H](O)[C@@H](CO)O[C@H]1O | 0 | 0 | 4.4 | 0 | 10.6 | 2.5 | 0 | – | 7.8 | 0 | 0 | Non-Toxic | 5.8 | 1.2 | 0 | 7.1 | 10.6 | 17.8 | – | 2.4 | inhibition (Escherichia coli [26]): 11.4%; inhibition (Pseudomonas aeruginosa [11]): 10.3%; inhibition (Escherichia coli [23]): 12.8%; inhibition [18]: 6.6%; inhibition (Pseudomonas aeruginosa [24]): 3.3%; inhibition (Escherichia coli [25]): 10.1%
CC(=O)OC[C@H]1O[C@@H](OC(C)=O)[C@H](NC(=O)Cc2ccc(C(F)(F)F)cc2)[C@@H](OC(C)=O)[C@@H]1OC(C)=O | 0 | 1.1 | 0 | 0 | 7 | 0 | 0 | 61.7 | 0 | 0 | 0 | Non-Toxic | 0 | 0.9 | 0 | 9.2 | 5.9 | 19.3 | 27.2 | 2.5 | inhibition (Escherichia coli [26]): 8.6%; inhibition (Pseudomonas aeruginosa [11]): 5.6%; inhibition (Escherichia coli [23]): 11.3%; inhibition (Pseudomonas aeruginosa [24]): 20.1%; inhibition (Escherichia coli [25]): 13%
COc1ccc(CC(=O)N[C@H]2[C@H](OC(C)=O)O[C@H](COC(C)=O)[C@@H](OC(C)=O)[C@@H]2OC(C)=O)cc1 | 0 | 0 | 3.9 | 0 | 18.6 | 0 | 0 | 25.4 | 0 | 0 | 0 | Non-Toxic | 0 | 4.5 | 0 | 9.6 | 17.8 | 5.6 | 28.7 | 4.2 | inhibition (Escherichia coli [26]): 6.6%; inhibition (Pseudomonas aeruginosa [11]): 19.4%; inhibition [18]: 0.4%; inhibition (Pseudomonas aeruginosa [24]): 0.9%
COc1ccc(CC(=O)N[C@@H]2[C@@H](O)[C@H](O)[C@@H](CO)O[C@H]2O)cc1 | 0 | 0 | 2.9 | 0 | 3 | 3 | 0 | 2.6 | 3.3 | 0 | 0 | Non-Toxic | 0 | 0 | 0 | 7.5 | – | 16.6 | 20.2 | 3.2 | inhibition (Escherichia coli [26]): 6.7%; inhibition (Escherichia coli [23]): 3.5%; inhibition (Escherichia coli [27]): 16%; inhibition (Pseudomonas aeruginosa [24]): 0.8%; inhibition (Escherichia coli [25]): 10.1%
CC(=O)N[C@@H]1[C@@H](O)[C@H](O)[C@@H](CO)O[C@H]1O [N-ACETYLGLUCOSAMINE] | 7.8 | 0 | 2.7 | 6.1 | – | 10.3 | 0 | 96.1 | 0 | 12.5 | 0 | Non-Toxic | 0 | 14.7 | 0 | 29.6 | 13.6 | – | 69.3 | 16.3 | inhibition (Escherichia coli [26]): 36.2%; inhibition (Escherichia coli [23]): 86.5%; inhibition (Escherichia coli [27]): 18.8%; inhibition (Pseudomonas aeruginosa [24]): 81.3%; inhibition (Escherichia coli [25]): 85%
O=C(Cc1ccc(Cl)cc1)N[C@@H]1[C@@H](O)[C@H](O)[C@@H](CO)O[C@H]1O | 0 | 7.4 | 0 | 0 | 8.7 | 4.5 | 0 | 2.8 | 0 | 0 | 1.3 | Non-Toxic | 0 | 11.2 | 0 | 3.4 | 7 | 15.3 | 4.6 | – | inhibition (Escherichia coli [26]): 5.6%; inhibition (Pseudomonas aeruginosa [11]): 7%; inhibition (Escherichia coli [23]): 4.3%; inhibition [18]: 11.9%; inhibition (Escherichia coli [25]): 2%
